# Results: ChEMBL document CHEMBL1201862, “PubChem BioAssay data set” (2004)
#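 Assay format: 96-well plates, 48-hour exposure. The concentration for 50% growth inhibition is given as GI50.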 Activity calls are given as the source filed them. Rule as the data show it: active = GI50 up to about 1.1 µM and inactive = higher.
# Legend:
# Assay in all cases: DTP human tumour cell line panel, 48 h
# PC-3 = test system: PC-3
# CCRF-CEM = test system: CCRF-CEM
# A498 = test system: A498
# KM12 = test system: KM12
# UACC-257 = test system: UACC-257
# DMS-273 = test system: DMS-273
# T47D = test system: T47D
# MCF7 = test system: MCF7
# NCI-H23 = test system: NCI-H23
# A549 = test system: A549
# DU-145 = test system: DU-145
# SR = test system: SR
# MDA-MB-231 = test system: MDA-MB-231
# COLO 205 = test system: COLO 205
# SNB-19 = test system: SNB-19
# HCT-116 = test system: HCT-116
# HCC 2998 = test system: HCC 2998
# XF498 = test system: XF498
# BT-549 = test system: BT-549
# OVCAR-5 = test system: OVCAR-5
smiles,measurement,setting,value
CS(=O)(=O)c1nc(Cl)c(Cl)c(C#N)c1Cl,GI50,PC-3,5.35 µM (inactive)
same,GI50,CCRF-CEM,0.998 µM (active)
same,GI50,A498,17.5 µM (inactive)
same,GI50,KM12,6.97 µM (inactive)
same,GI50,UACC-257,2.49 µM (inactive)
same,GI50,DMS-273,6.68 µM (inactive)
same,GI50,T47D,2.16 µM (inactive)
same,GI50,MCF7,3.42 µM (inactive)
same,GI50,NCI-H23,1.32 µM (inactive)
same,GI50,A549,18.7 µM (inactive)
same,GI50,DU-145,11.4 µM (inactive)
same,GI50,SR,0.736 µM (active)
same,GI50,MDA-MB-231,0.619 µM (active)
same,GI50,COLO 205,1.45 µM (inactive)
same,GI50,SNB-19,19.8 µM (inactive)
same,GI50,HCT-116,2.25 µM (inactive)
same,GI50,HCC 2998,14.2 µM (inactive)
same,GI50,XF498,3.09 µM (inactive)
same,GI50,BT-549,1.9 µM (inactive)
same,GI50,OVCAR-5,4.39 µM (inactive)
